Measured values taken from patent publication US7732611B2, “Amine salt of carbostyril derivative” (Otsuka Pharmaceutical Co., Ltd., priority 2004, dated 2010).

What was measured:
[1] = Water-solubility test at 25° C. of the isolated salts (HPLC); assay type: physicochemical; details: shaken 3 hours (5 days for meglumine salt), filtered, concentration of Compound A by HPLC
Procedure: Preparation of the Test Solution
After shaking, the mixture was filtered through a 0.45 μm membrane filter (0.2 μm for meglumine salt). 1 mL of the filtrate was precisely pipetted and thereto was added 50% DMF so as to be totally 50 mL in precise. 2 mL of this solution was precisely pipetted and thereto was added 50% DMF so as to be totally 20 mL in precise to give a sample solution.
Preparation of the Standard Solution
Using each 10 μL of the sample solutions and the standard solutions, the liquid chromatographic analyses were carried out in the following conditions.

[2] = Solubility test at 25° C. of the salt in a preparation prepared when used without isolating the salt (HPLC); assay type: physicochemical; details: water, Compound A plus equimolar amine, salt not isolated, shaken 7 days, 0.2 μm filter
Procedure: And then as to a sample to which arginine was added, the suspension was filtered through a 0.2 μm membrane filter. […] And then the mixture was filtrated through a 0.2 μm membrane filter. According to the same method as Example 8, the solubilities (%) of each salt was measured by HPLC.

Solubility (%) [1]: 2.9% | Solubility (%) [2]: >7.4%
SMILES: CC(O)CNCC(C)O.O=C(NC(Cc1cc(=O)[nH]c2ccccc12)C(=O)O)c1ccc(Cl)cc1 (centres unmarked) [Compound A·diisopropanolamine salt, 2-(4-chlorobenzoylamino)-3-(2-quinolon-4-yl)propionic acid.diisopropanolamine salt]
